Among the data in PubChem BioAssay (NCI) are TGI values, retold here.

Holding throughout (assay): NCI anticancer screen, dose series, 48 h
The test system of experiment [1] is CCRF-CEM leukemia.
In experiment [2] the test system is DU-145 prostate.
Experiment [3] has as its system HCT-15 colon.
Experiment [4] has as its system HL-60(TB) leukemia.
Experiment [5] concerns HOP-62 NSCLC.
The test system of experiment [6] is HT29 colon.
Experiment [7] deals with M14 melanoma.
The subject of experiment [8] is MCF7 breast.
Experiment [9] deals with MDA-MB-231 breast.
Experiment [10] concerns MDA-MB-435.
Experiment [11] concerns NCI-H460 lung.
The subject of experiment [12] is SK-MEL-2 melanoma.
In experiment [13] the test system is SK-MEL-5 melanoma.
Experiment [14] deals with SN12C renal.
Experiment [15] deals with SNB-19 CNS.
The subject of experiment [16] is SW-620 colon.
Experiment [17] concerns TK-10 renal.
Experiment [18] relates to UACC-62 melanoma.

Molecules are shown by their SMILES.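 The compound was tested at five concentrations on cells cultured in 96-well plates, with a 48-hour exposure period. At the TGI there is no net growth.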

Consider `COc1ccc2nc3cccc([N+](=O)[O-])c3c(NCCC(=O)O)c2c1`, for which the TGI in experiment [1], in experiment [2], in experiment [3], in experiment [4], in experiment [5] and in experiment [6] was > 10 µM throughout. Also, the TGI in [7], in [8], in [9], in experiment [10], in [11] and in experiment [12] was > 10 µM in each case. Also, the TGI in [13], in experiment [14], in [15], in experiment [16], in experiment [17] and in experiment [18] was > 10 µM each time.
Take `O=C1c2ccccc2C(=O)c2c1oc1cc(O)c(Cl)cc21`: the TGI in experiment [1] was determined as 55.3 µM; in experiment [2] it was 13.5 µM; in [3], 17.8 µM; in [4] it was 32.9 µM; in [5], 21.7 µM; in experiment [6] it was 3.89 µM. The TGI in experiment [7] was 6.88 µM; in experiment [8], 25.2 µM; in experiment [9], 33.9 µM; in experiment [10], 3.34 µM; in [11] it was 9.89 µM; in [12] it was 7.16 µM. The TGI in experiment [13] stood at 1.58 µM; in experiment [14], 22.5 µM; in experiment [15], 28 µM; in experiment [16] it was 24.9 µM; in [17] it was 38.5 µM; in experiment [18], 4.32 µM.
Regarding `CCOC(=O)c1ccc(N=C2Sc3nc4ccccc4n3C2=Nc2ccc(C(=O)OCC)cc2)cc1`, the TGI in experiment [1] was > 100 µM; in [2] it was > 100 µM; in experiment [3] it was > 100 µM; in [4], > 100 µM; in [5], 46.5 µM; in experiment [6] it was > 100 µM. In addition, the TGI in experiment [7] is 37.1 µM; in experiment [8], 31.3 µM; in experiment [9], 52.5 µM; in [10], > 100 µM; in experiment [11] it was 69.6 µM; in [12] it was 91.5 µM. Further, the TGI in experiment [13] was 63.2 µM; in [14], > 100 µM; in [15], 25.2 µM; in [16], > 100 µM; in experiment [17] it was 32.6 µM; in [18], 54.4 µM.
Turning to `O=C1CC(n2ccnc2)c2c(Cl)sc(Cl)c21` (configuration not stated), the TGI in experiment [1] was > 22.6 µM; in experiment [2], 30.6 µM; in experiment [3], 28.1 µM; in experiment [4] it was > 100 µM; in experiment [5], 51.9 µM; in [6] it was 43.6 µM. Besides, the TGI in experiment [7] was 35.3 µM; in experiment [8], 28 µM; in experiment [9], 36.5 µM; in [10] it was 49.6 µM; in [11], > 73.9 µM; in experiment [12] it was 54.9 µM. For the same compound, the TGI in [13] is 41.2 µM; in [14] it was 37.3 µM; in experiment [15], 38.3 µM; in [16] it was > 33.1 µM; in experiment [17], 45.1 µM; in experiment [18] it was 32 µM.
In the case of `CC1(C)CC(=O)c2c(-c3ccc(Cl)cc3)c(C#N)c(=S)n(C3OC(CO)C(O)C(O)C3O)c2C1` (configuration not stated), the TGI in experiment [1], in [2], in experiment [3], in [4], in [5] and in experiment [6] was > 100 µM in each case. The TGI in experiment [7] is > 100 µM; in experiment [8], > 100 µM; in experiment [9] it was > 100 µM; in experiment [10] it was 80.8 µM; in experiment [11], > 100 µM; in experiment [12], 43.9 µM. For the same compound, the TGI in experiment [13] is 34.8 µM; in [14] it was > 100 µM; in [15], > 100 µM; in [16], > 100 µM; in [17], > 100 µM; in experiment [18], 41.6 µM.
`C=CC(C)(C)NC(C(=O)N1CCC[C@H]1c1nc(-c2nc(C(=O)OCC=C(C)C)c(C)o2)c(C)o1)C(C)C` (some centres not stated): the TGI in experiment [1] is > 100 µM; in [2], > 100 µM; in experiment [3], > 95.5 µM; in experiment [4], 71.6 µM; in experiment [5], > 100 µM; in [6] it was > 86.8 µM. Further, the TGI in experiment [7] is > 100 µM; in experiment [8] it was > 82.8 µM; in experiment [9], > 100 µM; in experiment [10] it was > 72 µM; in experiment [11], > 100 µM; in experiment [12], > 73.4 µM. Moreover, the TGI in [13] is > 72.7 µM; in experiment [14] it was > 72.2 µM; in [15] it was > 100 µM; in [16], > 100 µM; in [17], > 100 µM; in experiment [18], > 60.9 µM.
For the compound `Nc1ncnc2c1ccn2CC#CCO`, the TGI in [1], in [2], in experiment [3], in experiment [4], in experiment [5] and in experiment [6] was > 100 µM in each case. For the same compound, the TGI in experiment [7], in [8], in experiment [9], in [10], in [11] and in [12] was > 100 µM in each case. Further, the TGI in [13], in experiment [14], in experiment [15], in [16], in experiment [17] and in [18] was > 100 µM in each case.
Turning to `Cc1cn(CC(=S)NCCc2c[nH]c3ccccc23)c(=O)[nH]c1=O`, the TGI in [1], in experiment [2], in [3], in experiment [4], in experiment [5] and in experiment [6] was > 100 µM each time. In addition, the TGI in experiment [7], in experiment [8], in experiment [9], in experiment [10], in experiment [12] and in [13] was > 100 µM throughout. The TGI in experiment [14], in [15], in experiment [16] and in experiment [18] was > 100 µM in each case.
